For test [1], the system named is distal colon blood flow. Nature of the test: Blood flow-increasing effects of components in crude drugs (1): hydroxysanshool, ginsenosides. The following applies: for Rate of increase in VC: into the colon, mg/kg: H-sanshool 0.3, ginseng 30, ginsenoside Rb1 1, ginsenoside Rg1 1, mean. It counts as in vivo, rat. The protocol:
Male SD rats (8 to 10 weeks of age, body weight 240 to 360 g) were used (n=2 to 6). Hydroxy-β-sanshool, ginsenoside Rb1, or ginsenoside Rg1 was added to a 1% aqueous solution of Tween 80 to obtain concentrations of 0.06 mg/mL, 0.2 mg/mL, and 0.2 mg/mL, respectively, and the resulting solutions were used as the respective test specimens for administration of individual crude drug components. Furthermore, test specimens for the administration of hydroxysanshool with a ginseng extract, ginsenoside Rb1, or ginsenoside Rg1 in combination were prepared by adding, to a 1% aqueous solution of Tween 80, hydroxysanshool at a concentration of 0.06 mg/mL, and a powdered ginseng extract, ginsenoside Rb1, or ginsenoside Rg1 at a concentration of 6 mg/mL, 0.2 mg/mL, or 0.2 mg/mL, respectively. After preliminarily placing an 18 G Surflo indwelling needle inserted through the caecum, 5 mL/kg portions of test specimens which had been kept warm at 37° C. were administered into the colon 0.5 to 1 hour later, by which time baseline blood flow had stabilized. A control group was administered a 1% aqueous solution of Tween 80.
A polyethylene tube with an inner diameter of 0.8 mm was inserted through the left common carotid artery of an anesthetized rat, and the tip was left indwelling in the left ventricle. A tracheal cannula was placed indwelling in the trachea and connected to a respirator (SN-480-7); artificial respiration was then performed at a frequency of 60 RPM. Body temperature was maintained at 37±0.5° C. by a temperature controller (NS-TC10). […] The results of measurement are expressed as the mean value±standard error (S.E.M.). Comparison of effects was performed by one-way analysis of variance (ANOVA), followed by the Scheffe multiple comparison test. A risk rate of 5% or less was employed as the significance level.

For test [2], the system named is distal colon blood flow. Nature of the test: Blood flow-increasing effects of components in crude drugs (2): 6-shogaol. It counts as in vivo, rat. The conditions noted are these: for Rate of increase in VC: into the colon, mg/kg: 6-shogaol 2, ginsenoside Rb1 1. The protocol: Male SD rats (8 to 10 weeks of age) were used. 6-Shogaol was added to a 1% aqueous solution of Tween 80 to obtain a concentration of 0.4 mg/mL, and the resulting solution was used as a test specimen. Furthermore, ginsenoside Rb1 and 6-shogaol were added to a 1% aqueous solution of Tween 80 at concentrations of 0.2 mg/mL and 0.4 mg/mL, respectively, to prepare test specimens. After preliminarily placing an 18 G Surflo indwelling needle inserted through the caecum, 5 mL/kg portions of test specimens which had been kept warm at 37° C. were administered into the colon 0.5 to 1 hour later, by which time baseline blood flow had stabilized. A control group was administered 1% aqueous solution of Tween 80.
A polyethylene tube with an inner diameter of 0.8 mm was inserted through the left common carotid artery of an anesthetized rat, and the tip was left indwelling in the left ventricle. A tracheal cannula was placed indwelling in the trachea and connected to a respirator (SN-480-7); artificial respiration was then performed at a frequency of 60 RPM. Body temperature was maintained at 37±0.5° C. by a temperature controller (NS-TC10).

`C/C=C/C=C/C=C/CC/C=C/C(=O)NCC(C)(C)O` [H-sanshool, Hydroxy-β-sanshool]: the “Rate of increase in VC” value in the test with distal colon blood flow [1] (15 min) came to 3.89%; with distal colon blood flow [1] (30 min) it was 5.79%; in the test with distal colon blood flow [1] (45 min), 2.09%; in the test on distal colon blood flow [1] (60 min), 9.46%; in the test with distal colon blood flow [1] (75 min), 8.58%; with distal colon blood flow [1] (90 min), 4.19%. Besides, in the test on distal colon blood flow [1] (Example 4, administration into the colon), the “Blood flow / VC increase (in words)” value was “did not increase blood flow”.
Take `CC(C)=CCC[C@](C)(O[C@@H]1O[C@H](CO)[C@@H](O)[C@H](O)[C@H]1O)[C@H]1CC[C@]2(C)[C@@H]1[C@H](O)C[C@@H]1[C@@]3(C)CC[C@H](O)C(C)(C)[C@@H]3[C@@H](O[C@@H]3O[C@H](CO)[C@@H](O)[C@H](O)[C@H]3O)C[C@]12C` [Ginsenoside Rg1, ginsenoside Rg1]: the “Rate of increase in VC” value is listed as −10.83% in the test on distal colon blood flow [1] (15 min); 5.84% in the test with distal colon blood flow [1] (30 min); 16.29% in the test on distal colon blood flow [1] (45 min); 10.92% with distal colon blood flow [1] (60 min); 12.25% in the test with distal colon blood flow [1] (75 min); 18.11% with distal colon blood flow [1] (90 min).
Take `CCCCC/C=C/C(=O)CCc1ccc(O)c(OC)c1` [6-Shogaol, 6-shogaol]: the “Rate of increase in VC” value with distal colon blood flow [2] (15 min) is given as 58.32%; in the test with distal colon blood flow [2] (30 min), 61.20%; with distal colon blood flow [2] (45 min), 53.07%; in the test with distal colon blood flow [2] (60 min), 42.55%; in the test with distal colon blood flow [2] (75 min), 46.68%; in the test with distal colon blood flow [2] (90 min), 32.92%. For the same molecule, the “Blood flow increase (in words)” value in the test with distal colon blood flow [2] (Example 5, administration into the colon) is listed as “induced an increase in blood flow”. Moreover, the “Time of peak increase in blood flow” value in the test with distal colon blood flow [2] (after administration into the colon) worked out at 30 min.
Regarding `CC(C)=CCC[C@](C)(O[C@@H]1O[C@H](CO[C@@H]2O[C@H](CO)[C@@H](O)[C@H](O)[C@H]2O)[C@@H](O)[C@H](O)[C@H]1O)[C@H]1CC[C@]2(C)[C@@H]1[C@H](O)C[C@@H]1[C@@]3(C)CC[C@H](O[C@@H]4O[C@H](CO)[C@@H](O)[C@H](O)[C@H]4O[C@@H]4O[C@H](CO)[C@@H](O)[C@H](O)[C@H]4O)C(C)(C)[C@@H]3CC[C@]12C` [Ginsenoside Rb1, ginsenoside Rb1], the “Rate of increase in VC” value stood at 11.72% in the test with distal colon blood flow [1] (15 min); 18.87% in the test with distal colon blood flow [1] (30 min); 60.21% with distal colon blood flow [1] (45 min); 26.20% with distal colon blood flow [1] (60 min); 40.81% in the test on distal colon blood flow [1] (75 min); 19.98% in the test on distal colon blood flow [1] (90 min).
